In the data set the target is Cytochrome P450 3A4 (Homo sapiens, UniProt P08684). The experiment in a line: CYP450 Enzyme Induction Study. As for the experimental part: A final incubation system of 500 μL contained 50 μL of liver microsomes (protein concentration: 0.2 mg/mL, Corning), 1 μL of mixed specific substrates of CYP450 (CYP1A2, CYP2B6, CYP2C9, CYP2C19, CYP2D6, CYP3A4), 398 μL of PBS (pH 7.4), 1 μL of specific positive inhibitor (positive control) or test compound (in acetonitrile) and 50 μL of NADPH+MgCl2. Samples were prepared in duplicate of 0.5 mL for each CYP450 subtype. For each tube, the 450 μL mixed solution of substrates and enzyme and the NADPH solution were separately pre-incubated at 37° C. for 5 min. The 50 μL mixed solution of NADPH+MgCl2 was added for reaction. At 30 min, 50 μL of the mixture was taken and 300 μL of glacial acetonitrile containing an internal standard was added to terminate the reaction. Additionally, 2 blanks of 500 μL each were prepared in parallel without adding NADPH as the negative control group.
Sequence of Cytochrome P450 3A4 (P08684 whole entry): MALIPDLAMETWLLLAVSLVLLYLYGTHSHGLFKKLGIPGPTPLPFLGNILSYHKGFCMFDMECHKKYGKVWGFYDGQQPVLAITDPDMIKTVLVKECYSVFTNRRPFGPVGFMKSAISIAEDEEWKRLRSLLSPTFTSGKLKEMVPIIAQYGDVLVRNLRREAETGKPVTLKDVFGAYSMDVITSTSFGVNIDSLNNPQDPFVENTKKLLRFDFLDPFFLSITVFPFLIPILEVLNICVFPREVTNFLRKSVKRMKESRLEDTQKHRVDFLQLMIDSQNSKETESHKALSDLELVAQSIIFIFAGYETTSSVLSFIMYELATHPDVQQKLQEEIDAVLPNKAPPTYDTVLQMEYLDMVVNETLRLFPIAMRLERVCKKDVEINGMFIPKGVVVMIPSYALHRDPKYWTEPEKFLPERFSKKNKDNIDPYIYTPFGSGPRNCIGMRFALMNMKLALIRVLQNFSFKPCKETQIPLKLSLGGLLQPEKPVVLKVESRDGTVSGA

What is called IC50 is the concentration that inhibits the measured activity by half. Low values mean greater potency in that assay, high ones weaker potency in that assay.

Structures are written as SMILES.

`Cc1c(C(=O)Nc2ccc(F)c(C#N)c2)c(C)n(C)c1C(=O)C(=O)NC(C)C(F)(F)F` (stereo unspecified) [US12378192, Compound of formula I]: the IC50 is over 200 µM.

For the origin of these results see BindingDB's records for patent US12378192 (Chia Tai Tianqing Pharmaceutical Group Co., 2025).
